We go through 21 compounds from USRE41065E1, “Alkynl and azido-substituted 4-anilinoquinazolines” (Pfizer, Inc., priority 1995, dated 2009).

Series [1] deals with another carcinoma which does not express the EGF receptor. The note with it: athymic nude mice; background statement; cited from earlier work.
Series [2] concerns transplanted human mammary carcinoma which expresses epidermal growth factor receptor tyrosine kinase (EGFR). As to conditions: athymic nude mice; background statement; cited from earlier work.

For the compound `C#Cc1cccc(Nc2ncnc3cc(OCCOC)c(OCCSCC(=O)O)cc23)c1.N`, the melting point was 98 to 113 °C (dec.).
Still for that read-out and setting: under `C#Cc1cc(Nc2ncnc3cc(OCCOC)c(OCCOC)cc23)ccc1F.Cl` stands 170 to 190 °C (dec.); under `C#Cc1ccc(C)c(Nc2ncnc3cc(OCCOC)c(OCCOC)cc23)c1.Cl`, 170 to 185 °C (dec.).
On to `C#Cc1cccc(Nc2ncnc3cc(OCCCl)c(OCCCl)cc23)c1.Cl`, for which the melting point was 230 to 240 °C (dec.).
As for `C#Cc1cccc(Nc2ncnc3cc(OCCOC)c(OCCCl)cc23)c1.Cl`, the melting point was 215 to 225 °C (dec.).
Same read-out and setting: under `C#Cc1cccc(Nc2ncnc3cc(OCCOC(C)=O)c(OCCOC(C)=O)cc23)c1` stands 137 to 138 °C; under `C#Cc1cccc(Nc2ncnc3cc(OCCO)c(OCCO)cc23)c1.Cl`, 215 to 218 °C (dec.).
Still for that read-out and setting: to `C#Cc1cccc(Nc2ncnc3cc(OCCOC)c(OCCOC(C)=O)cc23)c1` belongs 84 to 87 °C; to `C#Cc1cccc(Nc2ncnc3cc(OCCCl)c(OCCOC)cc23)c1.Cl`, 225 to 235 °C (dec.).
Same read-out and setting: under `C#Cc1cccc(Nc2ncnc3cc(OCCOC(C)=O)c(OCCOC)cc23)c1` stands 134 to 135 °C; under `C#Cc1cccc(Nc2ncnc3cc(OCCN4CCN(C)CC4)c(OCCOC)cc23)c1.Cl.Cl`, 130 to 142 °C (dec.).
Regarding `C#Cc1cccc(Nc2ncnc3cc(OCCn4ccnc4)c(OCCOC)cc23)c1.Cl.Cl`, the melting point is 220 to 227 °C (dec.).
The same measure, in the same setting: under `C#Cc1cccc(Nc2ncnc3cc(OCCOC)c(OCCn4ccnc4)cc23)c1.Cl.Cl` stands 85 to 100 °C (dec.).
On to `C#Cc1cccc(Nc2ncnc3cc(OCCOC)c(OCCN4CCOCC4)cc23)c1.Cl.Cl`, for which the melting point was 115 to 130 °C (dec.).
On to `C#Cc1cccc(Nc2ncnc3ccc(C)cc23)c1.Cl`, for which the melting point was 256 to 257 °C.
On the same count and under the same terms, under `C#Cc1cccc(Nc2ncnc3cc(OCCSC(C)C(=O)O)c(OCCOC)cc23)c1.N` (stereo not shown) stands 95 to 103 °C (dec.); under `C#Cc1cccc(Nc2ncnc3cc(OCCOC)c(O)cc23)c1.Cl`, 135 to 150 °C (dec.).
For `C#Cc1cccc(Nc2ncnc3cc(OCCn4ccc(=O)cc4)c(OCCOC)cc23)c1.Cl`, the melting point was 240 to 248 °C (dec.).
With `C#Cc1cccc(Nc2ncnc3cc(OCCOC)c(OCCn4ccc(=O)cc4)cc23)c1.Cl`, the melting point was 155 to 168 °C (dec.).
`C#Cc1cccc(Nc2ncnc3cc(OCCCC)c(OCCCC)cc23)c1.Cl` registered a melting point of 247 to 248 °C.
For the compound `O=CN/C=C/c1cc(O)ccc1O` [erbstatin], the “growth of carcinoma which does not express the EGF receptor” value in series [1] is given as “without effect on the growth”. Also, the “growth of transplanted human mammary carcinoma expressing EGFR” value in series [2] is listed as “selectively attenuates the growth”.

A word on the melting point: it is the temperature of the solid-liquid transition.
